According to patent US4123540A, “Isoclavulanic acid as an antibacterial and a β-lactamase inhibitor” (Beecham Group Limited, priority 1974, dated 1978):
Counter-ions that a name gives are not always drawn.

What was measured:
[1] = system: Klebsiella aerogenes A; assay: MIC / synergism, microtitre method (Example 42); assay type: cell-based; settings: method of Example 42 (μg/ml)
[2] = system: Klebsiella aerogenes E 70; assay: MIC / synergism, microtitre method (Example 42); assay type: cell-based; settings: method of Example 42 (μg/ml)
[3] = system: Klebsiella aerogenes 62; assay: MIC / synergism, microtitre method (Example 42); assay type: cell-based; settings: method of Example 42 (μg/ml)
[4] = system: Staphylococcus aureus Russell; assay: MIC, microtitre technique (Example 53); assay type: cell-based
From the text: (§1) The results were obtained by the microtitre technique with an inoculum of 1/500 of overnight broth.

[5] = system: Klebsiella aerogenes E70; assay: MIC, microtitre technique (Example 53); assay type: cell-based
From the text: as §1

[6] = system: Staphylococcus aureus (Russell); assay: MIC / synergism with methyl ester (Example 32); assay type: cell-based; settings: in the presence of 1.0 μg/ml. clavulanic acid methyl ester
[7] = system: Proteus mirabilis C889; assay: MIC / synergism with methyl ester (Example 32); assay type: cell-based; settings: in the presence of 5 μg/ml. clavulanic acid methyl ester
[8] = molecular target: T1, β-lactamase produced by Escherichia coli JT4 (Escherichia coli, UniProt P62593); assay: β-lactamase inhibition assay (Description 1); assay type: biochemical
T1 construct: This cell suspension was then disrupted in an MSE ultrasonic disintegrator at 4° C; endogenous in cells; host or cells: Escherichia coli JT4 (ampicillin-resistant, R-factor), supernatant of sonicated cells
Method: During this time, enzyme inhibition or inactivation occurs. Substrate (benzylpenicillin) is then added and incubation continued for 30 minutes at 37° C. The amount of enzymic degradation of the substrate to penicilloic acid is determined by the hydroxylamine assay for penicillin. The amount of β-lactamase used is such as to give 75% hydrolysis of the benzylpenicillin in 30 minutes at 37° C.
(§2) The extent of hydrolysis is a reflection of the amount of enzyme remaining uninhibited.
The β-lactamase produced by Escherichia coli JT4 is used as an enzyme. […] Other similar R-factor controlled β-lactamases may be used if desired.
The culture maintained on nutrient agar slopes, is inoculated into 400 ml. of sterile Tryptone medium contained in a 2 liter conical flask. This medium has the following composition Tryptone (Oxoid) 32 g/l, yeast extract (Oxoid) 20 g/l, NaCl 5 g/l and CaCl2 6H2 O 2.2 g/l. The final pH was adjusted to 7.4 with dilute NaOH. The flask is shaken at 25° C for 20 hours on a rotary shaker at 240 r.p.m. […]
Suitable dilutions of the inhibitor preparation and β-lactamase solution are mixed and incubated at 37° C for 15 minutes (Test). […] The absorption of the final solutions is measured in an E.E.L. Colorimeter or a Spectrophotometer at 490 nm against the reagent blank.
The percentage inhibition of the β-lactamase is calculated as follows […]

[9] = molecular target: T2, β-lactamase of Staphylococcus aureus (Russell) (Staphylococcus aureus, UniProt P00807); assay: β-lactamase inhibition assay; assay type: biochemical; settings: standard enzyme inhibitory assay (Example 49); read-out: I50 (converted)
T2 construct: endogenous in cells; host or cells: Staphylococcus aureus (Russell)
Method: Solutions containing clavulanic acid (culture filtrate, samples from isolation procedure and the like) are incubated for 15 minutes with a β-lactamase preparation in 0.05M phosphate buffer at pH 7 and 37° C. During this time, enzyme inhibition or inactivation occurs. Substrate (benzylpenicillin) is then added and incubation continued for 30 minutes at 37° C. The amount of enzymic degradation of the substrate to penicilloic acid is determined by the hydroxylamine assay for penicillin. The amount of β-lactamase used is such as to give 75% hydrolysis of the benzylpenicillin in 30 minutes at 37° C.
as §2
Suitable dilutions of the inhibitor preparation and β-lactamase solution are mixed and incubated at 37° C for 15 minutes (Test). A control with buffer in place of inhibitor preparation is also incubated. Benzylpenicillin solution (substrate) is then added to test and control mixtures, incubation continued for a further 30 minutes at 37° C. […] 6 ml. of hydroxylamine reagent are added to all tests, controls and blanks and are allowed to react for 10 minutes at room temperature prior to the addition of 2 ml of ferric ammonium sulphate reagent. The absorption of the final solutions is measured in an E.E.L. Colorimeter or a Spectrophotometer at 490 nm against the reagent blank.

[10] = system: Staphylococcus aureus(Russell); assay: MIC / synergism, microtitre method (Example 42); assay type: cell-based; settings: synergist (clavulanic acid sodium salt) added at 1 μg/ml. instead of 5 μg/ml.
[11] = hydrolysis of ester in phosphate buffer pH 7; assay type: physicochemical; settings: 1 mg/ml., 37° C, 0.05M phosphate buffer at pH 7, followed over 2 hours by paper chromatography
Method: The reaction was followed by paper chromatography (bioautographic system). Using the butanol/ethanol/water system to follow the reaction over a period of 2 hours the zone of the methyl ester at Rf 0.79 decreased in size as the zone of clavulanic acid at Rf 0.12 increased.

[12] = head prints sodium clavulanate, title sodium isoclavulanate, inoculum 1/500

T1 sequence (P62593 24-286 limits assumed): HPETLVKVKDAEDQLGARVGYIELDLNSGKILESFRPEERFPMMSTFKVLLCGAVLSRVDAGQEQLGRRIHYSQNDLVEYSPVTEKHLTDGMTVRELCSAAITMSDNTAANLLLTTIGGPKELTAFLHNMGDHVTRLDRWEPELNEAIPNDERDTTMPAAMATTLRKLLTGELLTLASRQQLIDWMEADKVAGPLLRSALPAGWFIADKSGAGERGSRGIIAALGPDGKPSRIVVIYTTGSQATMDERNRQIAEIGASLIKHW
T2 sequence (P00807 25-281): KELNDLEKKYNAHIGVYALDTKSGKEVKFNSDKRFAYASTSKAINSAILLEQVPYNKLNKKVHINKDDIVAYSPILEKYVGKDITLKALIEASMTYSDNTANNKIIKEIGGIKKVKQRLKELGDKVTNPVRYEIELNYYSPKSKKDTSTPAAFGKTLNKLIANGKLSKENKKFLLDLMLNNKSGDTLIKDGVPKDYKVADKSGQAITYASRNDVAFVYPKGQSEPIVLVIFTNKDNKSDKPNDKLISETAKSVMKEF

With CC1(C)S[C@@H]2[C@H](NC(=O)[C@H](N)c3ccccc3)C(=O)N2[C@H]1C(=O)O [Ampicillin, ampicillin] the “MIC of Ampicillin + 5 μg/ml of Benzyl Ester of clavulanic acid” value (“MIC … of Benzyl Ester of clavulanic acid” below) [1] was 1.9, the “MIC of Ampicillin + 5 μg/ml of Methyl Ester of clavulanic acid” value (“MIC … of Methyl Ester of clavulanic acid” below) [1] was 1.9 and the “MIC … of Benzyl Ester of clavulanic acid” value [2] was 3.9. For the same compound, the “MIC … of Methyl Ester of clavulanic acid” value [2] was 3.9, the “MIC … of Benzyl Ester of clavulanic acid” value [3] was 3.9 and the “MIC … of Methyl Ester of clavulanic acid” value [3] was 3.9. For the same compound, the “MIC of Ampicillin + 1μg/ml sodium clavulanate” value [4, 12] was 3.9 µg/mL, the “MIC of Ampicillin + 5μg/ml sodium clavulanate” value [4, 12] was 0.78 µg/mL and the “MIC of Ampicillin + 20μg/ml sodium clavulanate” value [4, 12] was 0.39 µg/mL. The “MIC of Ampicillin + 1μg/ml sodium clavulanate” value [5, 12] was 15.6 µg/mL, the “MIC of Ampicillin + 20μg/ml sodium clavulanate” value [5, 12] was 6.2 µg/mL and the “minimum inhibitory concentration (M.I.C.) of antibiotic in presence of synergist” value [6] was < 0.4 µg/mL. For the same compound, the “minimum inhibitory concentration (M.I.C.) of antibiotic in presence of synergist” value [7] was 31 µg/mL.

Work on O=C(COc1ccccc1)OC/C=C1\O[C@@H]2CC(=O)N2[C@H]1C(=O)OCc1ccccc1 [Benzyl phenoxyacetylclavulanate] yielded an IC50 ([8]; benzylpenicillin substrate, 15 min preincubation, pH 7, 37° C) of 5.9 µM and an IC50 [9] of 17.7 µM.

In the case of O=C(Cc1cccs1)N[C@@H]1C(=O)N2C(C(=O)[O-])=C(C[n+]3ccccc3)CS[C@H]12 [Cephaloridine, cephaloridine], the “Minimum Inhibitory Concentration of cephaloridine in presence of synergist” value [10] is reported as “Same value”.

With COC(=O)[C@H]1/C(=C/CO)O[C@@H]2CC(=O)N21 [clavulanic acid methyl ester] the “hydrolysis of the ester to clavulanic acid” value [11] was “Slow conversion of the ester to clavulanic acid”.

O=C(O)[C@H]1/C(=C/CO)O[C@@H]2CC(=O)N21 [clavulanic acid sodium salt, 3-(β-hydroxyethylidine)-7-oxo-4-oxa-1-azabicyclo [3,2,0]heptane-2-carboxylic acid sodium salt] showed an MIC ([4]; Staphylococcus aureus, compound alone, inoculum of 1/500 of overnight broth) of 125 µg/mL and an MIC ([5]; Klebsiella aerogenes, E70) of 500 µg/mL.

With O=C(O)[C@H]1/C(=C/CO)O[C@@H]2CC(=O)N21 [clavulanic acid, Z-(2R,5R)-3-(β-hydroxyethylidene)-7-oxo-4-oxa-1-azabicyclo[3,2,0]heptane-2-carboxylic acid] the “mode of inhibition of the β-lactamase” value [8] was “progressively and irreversibly inhibits”.
